Laboratory results from PubChem BioAssay (NCI).
Several values for one entry are separate records, joined by “and”; a condition that tells them apart may be missing. Equal entries are not always repeated.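 Step 1: Grow cells in 96-well plates. Step 2: Expose to compound for 48 hours at 5 concentrations. Step 3: Interpolate endpoints linearly; if unreached, use highest concentration. Here, GI50 denotes the concentration required for 50% inhibition of growth. TGI denotes the concentration required for complete inhibition of growth.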 *1 amine or outer side, *2 acyl side, *3 side chain or, on linkers, in order; H or OH if unused. Where a SMILES comes first, the peptide text is derived from it. Bridges are numbered along the chain shown (N, C = ends). Roman numbers before positions name the chains, in order. [ ]: non-standard residue; d: D form. Actinocin(9to1) = Cc1c2oc3c(C)ccc(C(=O)[*:1])c3nc-2c(C(=O)[*:2])c(N)c1=O; NMeV = CN[CH](C(=O)O)C(C)C; Sar = CNCC(=O)O

Key:
Test in all cases: inhibition of tumour cell growth, NCI panel, 48 h
[1] = tested on: ACHN renal
[2] = tested on: CCRF-CEM leukemia
[3] = tested on: COLO 205 colon
[4] = tested on: HCT-15 colon
[5] = tested on: MDA-N
[6] = tested on: SK-MEL-2 melanoma
[7] = tested on: SK-MEL-28 melanoma
[8] = tested on: SNB-75 CNS
[9] = tested on: U251 CNS
[10] = tested on: PC-3 prostate

SMILES | TGI [1] | TGI [2] [µM] | TGI [3] | TGI [4] [µM] | TGI [5] [µM] | TGI [6] [µM] | TGI [7] | TGI [8] [µM] | TGI [9] | TGI [10] [µM] | GI50 [4] [µM] | GI50 [1] [µM] | GI50 [2] [µM] | GI50 [5] [µM] | GI50 [10] [µM] | GI50 [7]
Clc1sc(Cl)c2c1[C@@H](Cl)C[C@@H]2Cl | > 100 µM | > 100 | > 100 µM | > 100 | > 100 | > 100 | > 100 µM | > 100 | > 100 µM | – | – | – | – | – | – | –
O=C(COc1ccc(OCC(=O)N2C(=O)CC(=O)N(c3ccc(Cl)cc3)C2=S)cc1)N1C(=O)CC(=O)N(c2ccc(Cl)cc2)C1=S | > 100 µM | – | 38.5 µM | > 100 | 97.2 | > 100 | > 100 µM | > 100 | > 100 µM | > 100 | – | – | – | – | – | –
CCOC(=O)c1ccc(Nc2nc3ccccc3nc2-c2cccs2)cc1 | > 100 µM | > 100 | > 100 µM | > 100 | > 100 | – | > 100 µM | > 100 | > 100 µM | > 100 | – | – | – | – | – | –
O=C(NNC(=S)Nc1ccccc1)c1nsc2ccccc12 | > 100 µM | 49 | > 100 µM | > 100 | – | > 100 | > 100 µM | 65.6 | > 100 µM | – | – | – | – | – | – | –
COc1cccc(N=N/C(=N/NC(=O)c2ccc(C)cc2)c2ccc(N(CCC#N)CCC#N)cc2OC)c1 | > 100 µM | > 100 | > 100 µM | > 100 | > 100 | > 100 | > 100 µM | – | > 100 µM | > 100 | – | – | – | – | – | –
COC(=O)[C@@H]1CS(=O)(=O)C(C(C)C)N1C(C)=O (some centres not stated) | > 100 µM | – | > 100 µM | > 100 | > 100 | > 100 | > 100 µM | > 100 | > 100 µM | > 100 | – | – | – | – | – | –
N#C/C(=C/C=C/c1ccco1)C(N)=O | > 10 µM | – | > 10 µM | > 10 | > 10 | > 10 | > 10 µM | > 10 | > 10 µM | > 10 | – | – | – | – | – | –
Cc1ccc(S(=O)(=O)N2C[C@@H]3CC[C@]4(CO[Si](C)(C)C(C)(C)C)N[C@@H](c5ccccc5)[C@H]2[C@H]34)cc1 | > 100 µM | > 100 | 58.8 µM | > 100 | > 100 | > 100 | > 100 µM | – | > 100 µM | > 100 | – | – | – | – | – | –
Cc1c2oc3c(C)ccc(C(=O)NC4C(=O)NC(Cc5ccccc5)C(=O)N5CCCC5C(=O)N(C)CC(=O)N(C)C(C(C)C)C(=O)OC4C)c3nc-2c(C(=O)NC2C(=O)NC(Cc3ccccc3)C(=O)N3CCCC3C(=O)N(C)CC(=O)N(C)C(C(C)C)C(=O)OC2C)c(N)c1=O (configuration not stated) (I: TFP[Sar][NMeV] / II: TFP[Sar][NMeV]; ester I:1-I:C, II:1-II:C; linker I:N-II:N via Actinocin(9to1); configuration not given here) | 1.21 µM and 1.98 µM | 0.00791 | 0.0112 µM and 0.0174 µM | – | 0.0442 | – | 0.0298 µM and 0.0417 µM | 0.049 | 1.06 µM and 1.26 µM | – | 0.017 | – | – | – | – | –
CN1/C(=C/C=C/C=C/C=C2C(=O)c3ccccc3C2=O)C(C)(C)c2ccccc21 | > 100 µM | > 100 | > 100 µM | > 100 | > 100 | 66.3 | – | > 100 | – | – | – | – | – | – | – | –
C#C[C@]1(O)CC[C@H]2[C@@H]3CCC4=C/C(=N/NC(=O)c5cccc6c(=O)c7ccccc7[nH]c56)CCC4[C@H]3CC[C@@]21C (some centres not stated) | > 100 µM | > 100 | > 100 µM | > 100 | > 100 | > 100 | – | > 100 | > 100 µM | > 100 | – | – | – | – | – | –
NCCCN(CCCCN(CCCN)C(=O)OCc1ccccc1)C(=O)OCc1ccccc1 | > 100 µM | > 100 | > 100 µM | > 100 | – | > 100 | > 100 µM | > 100 | > 100 µM | > 100 | – | – | – | – | – | –
O=C(O)CCC(=O)OCN1C(=O)C2C3C=CC(C2C1=O)C1C2C(=O)N(COC(=O)CCC(=O)O)C(=O)C2C31 (configuration not stated) | > 100 µM | > 81.1 | > 100 µM | > 57 | – | > 100 | > 100 µM | > 100 | > 100 µM | – | – | – | – | – | – | –
C/C=C(\C)C(=O)OC1CC(OC(C)=O)C2(C(=O)OC)COC3C2C1(C)C1C2(C(=O)OC)OCC1(C3O)C1(O)C3CC(C4(O)C=COC4O3)C1(C)O2 (configuration not stated) | > 100 µM | – | > 100 µM | > 100 | > 100 | > 100 | > 100 µM | > 100 | > 100 µM | > 100 | – | – | – | – | – | –
O=[N+]([O-])c1ccc(NN=C2CN3CCN(C2)c2ccccc23)c([N+](=O)[O-])c1 | > 100 µM | > 100 | > 100 µM | > 100 | > 100 | – | > 100 µM | – | > 100 µM | > 100 | – | – | – | – | – | –
COC(=O)C1CC2(C)C=CC1N(C(=O)OCc1ccccc1)C2 (configuration not stated) | > 100 µM | > 100 | > 100 µM | > 100 | – | > 100 | > 100 µM | > 100 | > 100 µM | > 100 | – | – | – | – | – | –
CC(C)(C)C1CCC2c3c([nH]c4ccccc34)C3C(=O)N(c4ccc(C#N)cc4)C(=O)C3C2C1 (configuration not stated) | 65.3 µM | – | > 100 µM | 26.2 | 26.9 | 30 | 36.3 µM | – | 37.1 µM | 17.6 | – | – | – | – | – | –
CCCCc1ccc(Nc2ncc3ncn(COCCO)c3n2)cc1 | > 100 µM | 60.6 | > 100 µM | > 100 | > 100 | 73.1 | – | 65.3 | > 100 µM | > 100 | – | – | – | – | – | –
O=P1(N2CCOCC2)OCCO1 | > 100 µM | > 100 | > 100 µM | > 100 | > 100 | – | > 100 µM | – | > 100 µM | > 100 | – | – | – | – | – | –
CC(C)(C)c1ccc(C(O)CCCN2CCC(C(O)(c3ccccc3)c3ccccc3)CC2)cc1 (configuration not stated) | 3.03 µM | 5.8 | 2.52 µM and 21.2 µM | – | 42.6 | – | 3.11 µM and 19.2 µM | – | – | – | – | 1.67 | 2 | 23.7 | 1.61 | 1.72 µM and 13.9 µM
N#CC1(C#N)C(C#N)(C#N)C1(C#N)C(N)=O | > 100 µM | > 100 | > 100 µM | > 100 | > 100 | > 100 | > 100 µM | – | > 100 µM | > 100 | – | – | – | – | – | –
